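Five concentrations, 48 hours, 96-well plates. Here, GI50 denotes the concentration required for 50% inhibition of growth.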 Activity calls are given as the source filed them. No stated cut-off is given here; in the data, active = GI50 up to about 1.1 µM and inactive = higher.
Key:
Assay in all cases: NCI anticancer screen, dose series, 48 h
COLO 205 = test system: COLO 205
HCT-116 = test system: HCT-116
HCT-15 = test system: HCT-15
HL-60 = test system: HL-60
K562 = test system: K562
MOLT-4 = test system: MOLT-4
NCI-H460 = test system: NCI-H460
NCI-H522 = test system: NCI-H522
OVCAR-4 = test system: OVCAR-4
RXF 393 = test system: RXF 393
SF-268 = test system: SF-268
SF-295 = test system: SF-295
SK-MEL-2 = test system: SK-MEL-2
SK-OV-3 = test system: SK-OV-3
SNB-19 = test system: SNB-19
SNB-75 = test system: SNB-75
SR = test system: SR
TK-10 = test system: TK-10
UACC-257 = test system: UACC-257
UACC-62 = test system: UACC-62

SMILES | GI50 (COLO 205) | GI50 (HCT-116) | GI50 (HCT-15) [µM] | GI50 (HL-60) | GI50 (K562) | GI50 (MOLT-4) | GI50 (NCI-H460) | GI50 (NCI-H522) | GI50 (OVCAR-4) | GI50 (RXF 393) | GI50 (SF-268) | GI50 (SF-295) | GI50 (SK-MEL-2) | GI50 (SK-OV-3) | GI50 (SNB-19) | GI50 (SNB-75) | GI50 (SR) | GI50 (TK-10) | GI50 (UACC-257) | GI50 (UACC-62)
COc1ccc(Cc2n[nH]c(Nc3ccc(Br)cc3)nc2=O)cc1OC | > 100 µM (inactive) | 64.3 µM (inactive) | > 100 | 57 µM (inactive) | 44.9 µM (inactive) | 43.1 µM (inactive) | > 100 µM (inactive) | 57.7 µM (inactive) | > 100 µM (inactive) | > 100 µM (inactive) | 88.5 µM (inactive) | > 100 µM (inactive) | 60.1 µM (inactive) | > 100 µM (inactive) | > 100 µM (inactive) | 28.9 µM (inactive) | 30.3 µM (inactive) | > 100 µM (inactive) | > 100 µM (inactive) | 65.8 µM (inactive)
O=C1CC(O)C=C1Nc1ccc(Cl)cc1 (stereo not drawn) | 9.95 µM (inactive) | 30.6 µM (inactive) |  | 13.1 µM (inactive) | 4.4 µM (inactive) | 16.4 µM (inactive) | 23.1 µM (inactive) | 11.2 µM (inactive) | 60.1 µM (inactive) | 40.5 µM (inactive) | 62.4 µM (inactive) | 33.1 µM (inactive) | 29.6 µM (inactive) | > 100 µM (inactive) | 80.7 µM (inactive) | 26.5 µM (inactive) | 19.1 µM (inactive) | > 100 µM (inactive) | 52.4 µM (inactive) | 0.879 µM (active)
O=C1CCC2(CC1CCSc1ccccc1)OCCO2 (stereo not drawn) | > 100 µM (inactive) |  | > 100 | 95.1 µM (inactive) | > 100 µM (inactive) | 81.8 µM (inactive) | > 100 µM (inactive) | > 100 µM (inactive) | > 100 µM (inactive) | > 100 µM (inactive) | > 100 µM (inactive) | > 100 µM (inactive) | > 100 µM (inactive) | > 100 µM (inactive) | > 100 µM (inactive) | > 100 µM (inactive) | > 100 µM (inactive) | > 100 µM (inactive) | > 100 µM (inactive) | > 100 µM (inactive)
Cc1ccc(C2=CC(=O)/C(=C\C(=O)c3ccc(Br)cc3)O2)c(C)c1 | 3.85 µM (inactive) | 7.64 µM (inactive) | 12.2 | 3.92 µM (inactive) | 3.4 µM (inactive) | 3.52 µM (inactive) | 26.5 µM (inactive) | 1.69 µM (inactive) | 9.42 µM (inactive) | 4.58 µM (inactive) | 16.2 µM (inactive) | 26 µM (inactive) | 49.1 µM (inactive) | 7.74 µM (inactive) | 18.7 µM (inactive) | 7.85 µM (inactive) | 2.36 µM (inactive) | 3.83 µM (inactive) | 16.9 µM (inactive) | 9.48 µM (inactive)
N=C(N)SCCON1C(=O)c2ccccc2C1=O | > 100 µM (inactive) | > 100 µM (inactive) | > 100 | > 100 µM (inactive) | > 100 µM (inactive) | > 100 µM (inactive) | > 100 µM (inactive) | > 100 µM (inactive) | > 100 µM (inactive) | > 100 µM (inactive) | > 100 µM (inactive) | > 100 µM (inactive) | > 100 µM (inactive) | > 100 µM (inactive) | > 100 µM (inactive) | > 100 µM (inactive) | > 100 µM (inactive) | > 100 µM (inactive) | > 100 µM (inactive) | > 100 µM (inactive)
CC1=C(OC2OC(CO)C(O)C(O)C2O)C(=O)C[C@H]2C1=CC[C@@H]1[C@@]2(C)C(=O)C[C@]2(C)[C@@H]([C@@](C)(O)C(=O)CCC(C)(C)O)[C@H](O)C[C@@]12C (stereo partly drawn) | > 100 µM (inactive) | > 100 µM (inactive) | > 100 | > 100 µM (inactive) | > 100 µM (inactive) | > 100 µM (inactive) | > 100 µM (inactive) | > 100 µM (inactive) | > 100 µM (inactive) | > 100 µM (inactive) | > 100 µM (inactive) | > 100 µM (inactive) | > 100 µM (inactive) | > 100 µM (inactive) | > 100 µM (inactive) | > 100 µM (inactive) | > 100 µM (inactive) | > 100 µM (inactive) | > 100 µM (inactive) | > 100 µM (inactive)
O=[N+]([O-])c1cc(C(F)(F)F)cc2n[se]nc12 | 2.03 µM (inactive) | 1.75 µM (inactive) | 2.28 | 0.429 µM (active) | 0.822 µM (active) | 1.48 µM (inactive) | 6.22 µM (inactive) | 3.13 µM (inactive) | 1.97 µM (inactive) | 2.3 µM (inactive) | 5 µM (inactive) | 12.5 µM (inactive) | 8.38 µM (inactive) | 13.6 µM (inactive) | 15.5 µM (inactive) | 7.64 µM (inactive) | 1.36 µM (inactive) | 4.5 µM (inactive) | 2.16 µM (inactive) | 4.15 µM (inactive)
Cc1ccc2nc(Cl)c(/C=N/N3C(=O)/C(=C/Cc4ccco4)N=C3c3ccccc3)cc2c1 | 51.5 µM (inactive) | 18.5 µM (inactive) | 27.7 | 34.1 µM (inactive) | 38.1 µM (inactive) | 58.6 µM (inactive) | 26.4 µM (inactive) | 27.4 µM (inactive) | 51.6 µM (inactive) | 2.54 µM (inactive) | 31.3 µM (inactive) | > 82.8 µM (inactive) | 56.6 µM (inactive) | > 100 µM (inactive) | 35.8 µM (inactive) | > 47.4 µM (inactive) | > 69.3 µM (inactive) | 18.4 µM (inactive) | 32.7 µM (inactive) | 60.5 µM (inactive)
CC1=NN=C(N)N/C1=C\C(Sc1ccc(Cl)cc1)c1ccc(Cl)cc1Cl (stereo not drawn) | 18.9 µM (inactive) | 8.02 µM (inactive) | 10.9 | 3.74 µM (inactive) | 1.28 µM (inactive) | 7.29 µM (inactive) | 8.77 µM (inactive) | 3.79 µM (inactive) | 17.1 µM (inactive) | 16.3 µM (inactive) | 12.6 µM (inactive) | 16.9 µM (inactive) | 16.4 µM (inactive) | 18.3 µM (inactive) | 12.4 µM (inactive) | 13.9 µM (inactive) | > 100 µM (inactive) | 17.5 µM (inactive) | 16.8 µM (inactive) | 14.7 µM (inactive)
CC1(C)C(=NNC(=O)C[N+](C)(C)C)C(C)(C)C1=NNC(=O)C[N+](C)(C)C | > 100 µM (inactive) | > 100 µM (inactive) | > 100 | > 100 µM (inactive) | > 100 µM (inactive) | > 100 µM (inactive) | > 100 µM (inactive) | 82.4 µM (inactive) | > 100 µM (inactive) | > 100 µM (inactive) | > 100 µM (inactive) | > 100 µM (inactive) | > 100 µM (inactive) | > 100 µM (inactive) | > 100 µM (inactive) | > 100 µM (inactive) | > 100 µM (inactive) | > 100 µM (inactive) | > 100 µM (inactive) | > 100 µM (inactive)

Reference: ChEMBL document CHEMBL1201862, “PubChem BioAssay data set” (2004)
